The source of these data is the NIST ThermoML archive (doi:10.1016/j.jct.2015.11.006).

Numbers after ± are expanded uncertainties.

As a reminder, the refractive index is the speed of light in vacuum divided by its phase velocity in the sample.

The series in a line: refractive index (Na D-line) (dimensionless). Conditions: 298.15 K; 101.33 kPa; Liquid; Standard Abbe refractometry.
Turning to `CCO` [ethanol], the refractive index was determined as 1.3591 ± 0.0005.

With `CC(C)O` [propan-2-ol], the refractive index is recorded as 1.3756 ± 0.0005.

With `O` [water], the refractive index is on record as 1.3326 ± 0.0005.
